Assay results as given in patent US12275729B2 (Merck Sharp & Dohme LLC, priority 2017, dated 2025).

Each compound was assayed against IDO1 (Homo sapiens, UniProt P14902) (assay: IDO1 Cellular Assay in HeLa Cells Stimulated with IFNγ). Conditions: about 48 hours, read-out: Hela IC50.
Chain of IDO1 (P14902 whole entry): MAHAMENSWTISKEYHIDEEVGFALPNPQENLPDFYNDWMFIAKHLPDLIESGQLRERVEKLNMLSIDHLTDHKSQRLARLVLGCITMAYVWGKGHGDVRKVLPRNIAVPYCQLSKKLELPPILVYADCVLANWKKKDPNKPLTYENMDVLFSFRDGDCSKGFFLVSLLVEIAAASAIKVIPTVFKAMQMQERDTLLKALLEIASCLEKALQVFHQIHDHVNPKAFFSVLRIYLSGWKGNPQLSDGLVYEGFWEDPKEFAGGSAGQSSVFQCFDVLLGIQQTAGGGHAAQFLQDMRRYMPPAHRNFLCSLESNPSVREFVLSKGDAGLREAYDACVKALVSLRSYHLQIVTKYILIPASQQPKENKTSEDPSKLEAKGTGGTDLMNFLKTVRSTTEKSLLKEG
Type: cell-based
In the case of `CC(C)CC(=O)N1CCCc2cc(CNC(=O)c3ccc(C(C)C)cc3)ccc21` [Example 3, N-{[1-(3-methylbutanoyl)-1,2,3,4-tetrahydroquinolin-6-yl]methyl}-4-(propan-2-yl)benzamide], the IC50 is reported as 209 nM.
`CC(NC(=O)c1ccc(F)cc1)c1ccc2c(n1)CCCN2C(=O)C1CCOCC1` (stereo in doubt) [Example 146, 4-fluoro-N-{(1R)-1-[5-(oxane-4-carbonyl)-5,6,7,8-tetrahydro-1,5-naphthyridin-2-yl]ethyl}benzamide] was tested, and the IC50 was 35.5 nM.
`CC(NC(=O)c1ccc(F)cc1)c1ccc2c(n1)CCCN2C(=O)C1(C)CCCCO1` (stereo in doubt) [Example 139, 4-fluoro-N-(1-{5-[(2S)-2-methyloxane-2-carbonyl]-5,6,7,8-tetrahydro-1,5-naphthyridin-2-yl}ethyl)benzamide] showed an IC50 of 348 nM.
`Cc1nc(C(=O)N2CCCc3cc([C@@H](C)C(=O)Nc4ccc(F)cn4)ccc32)no1` [Example 64, (2R)-N-(5-fluoropyridin-2-yl)-2-[1-(5-methyl-1,2,4-oxadiazole-3-carbonyl)-1,2,3,4-tetrahydroquinolin-6-yl]propanamide] was tested, and the IC50 was 44.4 nM.
For `CN(C)C(=O)N1CCCc2cc(C3(C(=O)Nc4ccc(F)cn4)CCC3)ccc21` [Example 102, 6-{1-[(5-fluoropyridin-2-yl)carbamoyl]cyclobutyl}-N,N-dimethyl-3,4-dihydroquinoline-1(2H)-carboxamide], the IC50 was 149 nM.
`COC(C(=O)Nc1ccc(F)cn1)c1ccc2c(c1)CCCN2C(=O)C1CC1` (single isomer, unassigned) [Example 157, 2-(1-(cyclopropanecarbonyl)-1,2,3,4-tetrahydroquinolin-6-yl)-N-(5-fluoropyridin-2-yl)-2-methoxyacetamide] was tested, and the IC50 was 154 nM.
For `O=C(NC1(c2ccc3c(n2)CCCN3C(=O)NC2CC2)CC1)c1ccc(F)cc1` [Example 214, N-cyclopropyl-6-{1-[(4-fluorobenzene-1-carbonyl)amino]cyclopropyl}-3,4-dihydro-1,5-naphthyridine-1(2H)-carboxamide], the IC50 was 159 nM.
For `Cc1cc(C(=O)N2CCCc3cc(C4(C(=O)Nc5ccc(F)cn5)CCC4)ccc32)ncn1` [Example 107, N-(5-fluoropyridin-2-yl)-1-[1-(6-methylpyrimidine-4-carbonyl)-1,2,3,4-tetrahydroquinolin-6-yl]cyclobutane-1-carboxamide], the IC50 was 12.8 nM.
For `CC(C(=O)Nc1ccc(F)cc1)c1ccc2c(c1)CCCN2C1CCCCC1` (stereo not drawn) [Example 228, 2-(1-cyclohexyl-1,2,3,4-tetrahydroquinolin-6-yl)-N-(4-fluorophenyl)propanamide], the IC50 was 4150 nM.
In the case of `Cc1ccc(C(=O)NCc2ccc3c(c2)CCCN3C(=O)CC(C)C)cc1` [Example 5, 4-methyl-N-{[1-(3-methylbutanoyl)-1,2,3,4-tetrahydroquinolin-6-yl]methyl}benzamide], the IC50 is reported as 77.9 nM.
With `Cc1nnc(C(=O)N2CCCc3cc(C(C)C(=O)Nc4ccc(F)cc4)ccc32)o1` (stereo not drawn) [Example 44] the IC50 was 16.8 nM.
`O=C(NCc1ccc2c(c1)CCCN2C(=O)c1cccc(Cl)c1)c1cccc(Cl)c1` [Example 16, 3-chloro-N-((1-(3-chlorobenzoyl)-1,2,3,4-tetrahydroquinolin-6-yl)methyl)benzamide] was tested, and the IC50 was 118 nM.
Compound `O=C(c1cnn(C2CC2)c1)N1CCCc2cc(C3(C(=O)Nc4ccc(F)cc4)CCC3)ccc21` [Example 113, 1-[1-(1-cyclopropyl-1H-pyrazole-4-carbonyl)-1,2,3,4-tetrahydroquinolin-6-yl]-N-(4-fluorophenyl)cyclobutane-1-carboxamide] has an IC50 of 65.8 nM.
Compound `Cc1cc(N2CCCc3nc(C4(NC(=O)c5ccc(F)cc5)CC4)ccc32)ccn1` [Example 243, 4-fluoro-N-{1-[5-(2-methylpyridin-4-yl)-5,6,7,8-tetrahydro-1,5-naphthyridin-2-yl]cyclopropyl}benzamide] has an IC50 of 14.3 nM.

Same assay, conditions: read-out: Hela IC50
For `C[C@H](NC(=O)c1ccc(F)cc1)c1ccc2c(n1)CCCN2c1cccc(OC(C)(C)C)n1` [Example 385, (S)-N-(1-(5-(6-(tert-butoxy)pyridin-2-yl)-5,6,7,8-tetrahydro-1,5-naphthyridin-2-yl)ethyl)-4-fluorobenzamide], the IC50 was 968 nM.
